Measurements published in patent US8329757B2, “Curcumin analog compositions and related methods” (Charlesson, LLC, priority 2008, dated 2012).
Like-named read-outs stand apart in the source and are kept apart here.

What was measured:
Type in all cases: cell-based
[1] = system: TNF-α-stimulated generation of reactive oxygen species in human retinal pigment epithelial cells (ARPE-19); test: TNF-α-stimulated intracellular ROS generation (CM-H2DCFDA fluorescence); conditions: for effect on ROS production: same concentration range (2-8 μM), same conditions; for reduction of ROS: 24 h pretreatment, TNF-α 20 ng/ml, ARPE-19, n=6
Method: The intracellular generation of ROS was stimulated by TNF-α. Human retinal pigment epithelial cells (ARPE-19) were cultured on 96-well plates and pretreated with or without aminoguanidine, curcumin, and the CLT010 compounds for 24 h. TNF-α was added into culture medium at the concentration of 20 ng/ml and incubated with the cells for 1 h at 37° C. To measure ROS generation, 5-(and -6)-chloromethyl-2′,7′-dichlorodihydrofluorescein diacetate (CM-H2DCFDA) was added to the cells and incubated for 45 min. The relative fluorescence intensity representing the intracellular generation of ROS was measured using FLUOstar Omega at an emission wavelength of 535 nm, after excitation at 485 nm. TNF-α stimulated the intracellular generation of ROS by 36.9±8.4%, compounded with the untreated cells. Novel antioxidants reduced the intracellular ROS. At concentration of 8 μM, CLT010-01 reduced ROS by 40.5±6.3% (p<0.01, n=6), and CLT010-07 reduced ROS by 50.6±6.8% (p<0.01, n=6).
According to embodiments of experimental data shown in FIG. 2, ARPE-19 cells were pretreated with aminoguanidine, curcumin, CLT010-01, CLT010-07, and CLT010-12 at indicated concentrations for 24 h prior to the addition of TNF-α (20 ng/ml). The cells were incubated with CM-H2DCFDA for 45 min. Relative fluorescent intensity in the untreated cells, TNF-α-stimulated cells and compound plus TNF-α-treated cells. In FIG. 2B, the percentage of relative fluorescent intensity in each compound plus TNF-α-treated cells compared with that of TNF-α-stimulated cells is shown as the compound plus TNF-α vs TNF-α alone: *p<0.05, p<0.01, n=6.

[2] = system: Primary bovine retinal capillary endothelial cells (BRCECs); test: MTT cell proliferation assay, BRCECs; conditions: 72 hours, mean±SD, n=3, read-out: IC50 (μM) BRCEC
Method: (§1) Primary bovine retinal capillary endothelial cells (BRCECs), pericytes and human prostate adenocarcinoma cells (PC-3), and human breast cancer cells (MCF-7 and MDA-MB-231) were treated with the CLT010 compounds at various concentrations for 72 hours.

PC-3M = test: MTT cell proliferation assay, PC-3M; conditions: 72 hours, mean±SD, n=3
Method: [The source words this procedure for another cell line and reports this cell line under the same test.] as §1

[3] = system: VEGF in human retinal capillary endothelial cells (HRCECs); test: CoCl2-induced VEGF over-expression, ELISA of conditioned medium; conditions: 24 h, CoCl2 200 μM; for reduction of VEGF levels: n=3
Method: To address if new antioxidants block VEGF over-expression induced by hypoxia, we measured levels of VEGF in human retinal capillary endothelial cells (HRCECs) after the exposure of CLT010-01, CLT010-07, and CLT010-12. The effect of new oxidants was compared with curcumin. HRCECs were seeded at a density of 4×10^4 cells/well in 400 μl of growth medium in triplicate in gelatin-coated 24-well plates, 24 h prior to the experiments. VEGF over-expression was induced by 200 μM of cobalt chloride (CoCl2). Cells were incubated with the medium in the presence or absence of CoCl2 and CoCl2 plus curcumin, CLT010-01, CLT010-07 and CLT010-12 at the concentrations of 0.5, 2, and 4 μM. The conditioned medium was collected 24 h after treatment. VEGF concentrations were measured by ELISA specific for VEGF using a commercial kit (R & D Systems, Minneapolis, Minn.). CoCl2 induced VEGF over-expression by 53.1±13.9%, compared to the untreated cells. The novel antioxidants reduced the expression of VEGF (FIGS. 3A and 3B). CLT010-01 reduced the VEGF levels by 48.8±7.8% at 4 μM (p<0.001, n=3). CLT010-07 inhibited the VEGF levels by 45.2±8.5 (p<0.01, n=3) and 57.2±4.4% (p<0.001, n=3) at 2 and 4 μM, respectively. CLT010-12 suppressed the VEGF expression by 24.2±10 (p<0.01, n=3), 58.2±7.2 (p<0.001, n=3), and 67.3±4.4% (p<0.001, n=3) at 0.5, 2 and 4 μM (p<0.001, n=3), respectively (FIG. 3B).
According to embodiments of experimental data shown in FIG. 3, HRCECs were cultured in the presence or absence of CoCl2, CoCl2 plus curcumin, CLT010-01, CLT010-07, and CLT010-12 at concentrations as indicated. The conditioned medium was collected after 24 h treatment. VEGF levels were measured by ELISA. In FIG. 3A, VEGF concentrations in the medium from the untreated cells, CoCl2-treated cells, and CoCl2 plus compound-treated cells are shown. In FIG. 3B, the percentage of VEGF concentrations in the medium from CoCl2 plus compound-treated cells compared with that of the medium from CoCl2-treated cells is shown. CoCl2 plus compounds plus vs. CoCl2: *p<0.01, p<0.001, n=3.

[4] = system: human breast cancer cells (MDA-MB-231); test: MTT cell proliferation assay, MDA-MB-231; conditions: mean±SD, n=3
Method: as §1

[5] = system: human prostate adenocarcinoma cells (PC-3); test: MTT cell proliferation assay, PC-3; conditions: 72 hours, mean±SD, n=3
Method: as §1

[6] = system: human breast cancer cells (MCF-7); test: MTT cell proliferation assay, MCF-7; conditions: mean±SD, n=3
Method: as §1

pericytes = test: MTT cell proliferation assay, pericytes; conditions: 72 hours
Method: as §1

Du145 = test: MTT cell proliferation assay, Du145; conditions: mean±SD, n=3
Method: [The source words this procedure for another cell line and reports this cell line under the same test.] as §1

cancer cells = test: MTT cell proliferation assay, cancer cells (summary over lines); conditions: Homo sapiens, 72 hours, range across cancer cell lines, read-out: IC50, growth of cancer cells (range over cell lines)
Method: as §1

Row | Compound | IC50 (PC-3M) [µM] | IC50 ([4]; 72 hours) [µM] | IC50 [5] [µM] | IC50 ([6]; 72 hours) [µM] | IC50 (Du145; 72 hours) [µM] | effect on ROS production [1] | IC50 ([2]; Bos taurus, Endothelial cell) [µM] | reduction of VEGF levels ([3]; 4 μM) [%] | reduction of ROS ([1]; 8 μM) [%] | inhibition of the growth of pericytes (pericytes) | reduction of VEGF levels ([3]; 2 μM) [%] | IC50 [2] [µM] | also measured
1 | N=C(N)NN [Aminoguanidine, reference compound] |  |  |  |  |  | did not significantly affect | > 32 |  |  |  |  |  | 
2 | COc1cc(/C=C/C(=O)/C=C/c2cc(OC)c(OS(N)(=O)=O)c(OC)c2)cc(OC)c1OS(N)(=O)=O [CLT010-12] | 4.2 ± 0.1 | 0.6 ± 0.1 | 1.9 ± 0.04 | 1.5 ± 0.1 | 6.3 ± 0.2 |  |  | 67.3±4.4 | 55.1±3.9 | did not significantly inhibit | 58.2±7.2 | 3.6 ± 0.2 | reduction of VEGF levels ([3]; 0.5 μM): 24.2±10%; reduction of ROS ([1]; 2 μM): 15.3±2.9%; reduction of ROS ([1]; 4 μM): 32.9±5.9%
3 | COc1cc(/C=C/C(=O)CC(=O)/C=C/c2ccc(O)c(OC)c2)ccc1O [Curcumin] |  |  |  |  |  | did not significantly affect | 13.8 |  |  |  |  |  | IC50 (PC-3M; Homo sapiens, PC-3M): 10.7 ± 1.3 µM; IC50 (cancer cells): 9.5 to 25.6 µM; inhibition of the release of VEGF from cells into medium ([3]; 0.5, 2, and 4 μM, p>0.05, n=3): did not significantly inhibit; IC50 ([4]; Homo sapiens, MDA-MB-231, 72 hours): 25.6 ± 4.8 µM; IC50 ([5]; Homo sapiens): 9.5 ± 1.6 µM; IC50 ([6]; Homo sapiens, MCF7, 72 hours): 21.5 ± 4.7 µM; IC50 (Du145; Homo sapiens, DU-145, 72 hours): 20.7 ± 3.5 µM

Now from value to compound, other results behind:

Row | IC50 (PC-3M) [µM] | IC50 ([4]; 72 hours) [µM] | IC50 [5] [µM] | IC50 ([6]; 72 hours) [µM] | IC50 (Du145; 72 hours) [µM] | Compound | effect on ROS production [1] | IC50 ([2]; Bos taurus, Endothelial cell) [µM] | reduction of VEGF levels ([3]; 4 μM) [%] | reduction of ROS ([1]; 8 μM) [%] | inhibition of the growth of pericytes (pericytes) | reduction of VEGF levels ([3]; 2 μM) [%] | IC50 [2] [µM] | also measured
4 | 8.5 ± 0.5 | 3.1 ± 1.3 | 15.8 ± 1.6 | 5.5 ± 1.2 | 25.9 ± 0.3 | COc1cc(/C=C/C(=O)CC(=O)/C=C/c2ccc(OS(N)(=O)=O)c(OC)c2)ccc1OS(N)(=O)=O [CLT010-01] |  |  | 48.8±7.8 | 40.5±6.3 | did not significantly inhibit |  |  | 
5 | 6.7 ± 0.7 | 6.2 ± 1.6 | 1.8 ± 0.3 | 6.5 ± 0.1 | 5.3 ± 2.4 | COc1cc(/C=C/c2cc(/C=C/c3ccc(OS(N)(=O)=O)c(OC)c3)[nH]n2)ccc1OS(N)(=O)=O [CLT010-07] |  |  | 57.2±4.4 | 50.6±6.8 | did not significantly inhibit | 45.2±8.5 | 3.9 ± 0.1 | 
